Read-outs that look alike come from different tables or passages of the source.
How the values were obtained:
[1] = tested on: Deiodinase; set-up: method as in ToxCast; conditions: ref ToxCast, cited from earlier work; on Thyroid pathway: Deiodinase (Not AOP), Call: key: Pos = positive result; Neg = negative result; Inc = uncertain/inconclusive result
[2] = target: T1, COX2 (h) (Homo sapiens, UniProt P35354); assay: Pharmacology profiling: COX2 (h); assay type: biochemical; conditions: read-out: COX2 (h): % inhibition @10 µM
T1 sequence (P35354 18-604): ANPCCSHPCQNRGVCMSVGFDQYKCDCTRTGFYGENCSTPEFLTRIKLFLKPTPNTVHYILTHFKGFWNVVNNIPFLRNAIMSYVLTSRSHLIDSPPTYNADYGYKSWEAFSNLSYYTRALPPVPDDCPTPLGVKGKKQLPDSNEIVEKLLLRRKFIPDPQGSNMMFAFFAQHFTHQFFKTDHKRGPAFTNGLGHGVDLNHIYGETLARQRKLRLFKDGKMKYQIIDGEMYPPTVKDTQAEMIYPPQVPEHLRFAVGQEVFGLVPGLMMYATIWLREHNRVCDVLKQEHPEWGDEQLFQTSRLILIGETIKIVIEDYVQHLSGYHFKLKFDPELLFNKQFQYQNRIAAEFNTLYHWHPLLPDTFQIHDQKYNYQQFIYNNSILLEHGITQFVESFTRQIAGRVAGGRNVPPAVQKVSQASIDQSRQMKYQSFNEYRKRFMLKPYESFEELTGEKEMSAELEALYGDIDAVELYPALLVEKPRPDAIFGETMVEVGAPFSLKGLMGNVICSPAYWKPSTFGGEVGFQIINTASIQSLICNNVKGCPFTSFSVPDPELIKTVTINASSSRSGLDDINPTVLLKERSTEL
Source text: (§1) Cosmetics Europe’s Systemic Toxicity Taskforce (SysTox-TF) has extended the list of targets in an in vitro screen originally described by [Bowes et al. (2012)] to assess the effects of cosmetic chemicals on target molecules. The approach was based on the knowledge that various targets of pharmacological interest have been linked to human adverse drug reactions, and that screening of these has helped the pharma industry in identifying drug candidates with acceptable human safety profiles ([Bowes et al., 2012]; [Scott et al., 2022]). The methods used by the pharma industry were adapted for use in cosmetic chemical NGRA. A final list of 83 target assays were considered suitable for cosmetic chemical safety testing (see Supplementary Materials S1.7). The targets were receptors, ion channels, transporters and enzymes identified by the pharma industry as linked to human adverse drug reactions, supplemented by additional targets that have been reasoned to be linked to systemic toxicities of chemicals in animals. Chemicals that are flagged for a target are tested in follow-up dose-response assays to establish potency of the interaction. […]. [Valentin et al., 2018]; [Dodson et al., 2021]). […].
(§2) assay’s reference compound was set to 100%. For antagonist assays, the basal signal (exposure to fixed concentration of agonist only) was set to 100%. Activity of the samples was scaled accordingly, […]
(§3) Using these graphs, lowest […]
(§4) compound activity for antagonist assays.
(§5) S1.7. Pharmacology profiling assays […]
(§6) reasoned to link to pathological effects. […]
(§7) around the control level. […]
(§8) determine the potency (IC50).
(§9) Supplementary Table S4 Pharmacology profiling assay panel. […]

[3] = assay type: in vitro ADME; conditions: human, 24 h
Source text: Additional information was required to determine whether an adjustment factor was needed to account for a difference in the absorption of daidzein after topical application and whether the absorption was impacted by the use of the intended (body lotion base) formulation. […]. […] […]. The results of this study are described in detail by [Géniès et al. (2024)] and are summarized here.

[4] = target: 5-HT2B (h) (Homo sapiens, UniProt P41595); assay: Pharmacology profiling: 5-HT2B (h) (agonist RL); assay type: binding; conditions: read-out: 5-HT2B (h) (agonist RL): % inhibition @10 µM
5-HT2B (h), sequence (P41595 whole entry): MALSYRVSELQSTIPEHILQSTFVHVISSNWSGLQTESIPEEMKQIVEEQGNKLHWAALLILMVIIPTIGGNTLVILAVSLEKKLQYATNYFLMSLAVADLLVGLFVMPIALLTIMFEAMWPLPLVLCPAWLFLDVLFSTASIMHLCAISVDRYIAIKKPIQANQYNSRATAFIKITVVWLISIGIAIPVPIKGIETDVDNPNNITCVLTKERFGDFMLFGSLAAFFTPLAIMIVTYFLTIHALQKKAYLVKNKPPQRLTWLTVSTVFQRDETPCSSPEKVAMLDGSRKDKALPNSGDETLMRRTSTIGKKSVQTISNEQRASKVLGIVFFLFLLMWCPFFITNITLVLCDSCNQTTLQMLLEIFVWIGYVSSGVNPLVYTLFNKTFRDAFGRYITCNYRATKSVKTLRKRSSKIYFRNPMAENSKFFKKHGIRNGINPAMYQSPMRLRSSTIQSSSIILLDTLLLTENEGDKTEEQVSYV
Source text: as §1, §2, §3, §4, §5, §6, §7, §8, §9

[5] = tested on: Thyroid peroxidase; set-up: method as in ToxCast; conditions: ref ToxCast, cited from earlier work; on Thyroid pathway: Thyroid peroxidase, Call: key: Pos = positive result; Neg = negative result; Inc = uncertain/inconclusive result
[6] = tested on: Aromatase; set-up: method as in ToxCast; conditions: ref ToxCast; cited from earlier work; further: key: Pos = positive result; Neg = negative result; Inc = uncertain/inconclusive result
[7] = tested on: Monooxygenase; set-up: method as in ToxCast; conditions: ref ToxCast, cited from earlier work
[8] = tested on: Estrogen pathway; set-up: method as in ToxCast; conditions: ref ToxCast, cited from earlier work
[9] = target: Adenosine A2A (h) (Homo sapiens, UniProt P29274); assay: Pharmacology profiling: Adenosine A2A (h) (agonist RL); assay type: binding; conditions: read-out: Adenosine A2A (h) (agonist RL): % inhibition @10 µM
Adenosine A2A (h), sequence (P29274 whole entry): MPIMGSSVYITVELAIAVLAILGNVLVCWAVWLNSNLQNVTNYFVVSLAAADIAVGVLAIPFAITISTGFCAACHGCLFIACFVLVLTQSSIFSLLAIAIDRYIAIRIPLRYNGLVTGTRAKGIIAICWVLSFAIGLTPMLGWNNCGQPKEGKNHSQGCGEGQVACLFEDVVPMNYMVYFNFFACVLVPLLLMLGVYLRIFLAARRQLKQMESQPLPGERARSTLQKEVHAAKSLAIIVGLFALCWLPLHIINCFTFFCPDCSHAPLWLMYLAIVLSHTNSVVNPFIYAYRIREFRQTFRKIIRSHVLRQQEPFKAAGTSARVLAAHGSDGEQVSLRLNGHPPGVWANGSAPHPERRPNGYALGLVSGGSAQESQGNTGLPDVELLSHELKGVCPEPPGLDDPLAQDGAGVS
Source text: as §1, §2, §3, §4, §5, §6, §7, §8, §9

[10] = tested on: TSHR; set-up: method as in ToxCast; conditions: ref ToxCast; cited from earlier work; further: key: Pos = positive result; Neg = negative result; Inc = uncertain/inconclusive result
[11] = tested on: ER; set-up: method as in Opera; conditions: experimental call listed in the Opera output; ref Opera; cited from earlier work
[12] = tested on: HepG2 cells; assay: cells; assay type: cell-based; conditions: for AC50: Homo sapiens, HepG2, 24 h

O=c1c(-c2ccc(O)cc2)coc2cc(O)ccc12 [Daidzein, DAIDZEIN]
Thyroid pathway: Deiodinase (Not AOP), Call [1]: Pos
AC50 ([1]; read-out: Thyroid pathway: Deiodinase (Not AOP), AC50): 17.2 µM
inhibition at 10 µM [2]: 21.6%
Metabolized in the skin after 24 h [3]: 55%
inhibition at 10 µM [4]: 44.1%
Thyroid pathway: Thyroid peroxidase, Call [5]: Pos
AC50 ([5]; read-out: Thyroid pathway: Thyroid peroxidase, AC50): 10.2 µM
Steroidogenesis: Aromatase, Call [6]: Neg
Thyroid pathway: Monooxygenase (Not AOP), Call [7]: Pos
AC50 ([7]; read-out: Thyroid pathway: Monooxygenase (Not AOP), AC50): 9.1 µM
Estrogen pathway: Cell Proliferation, Call [8]: Pos
Estrogen pathway: Dimerization, Call [8]: Pos
Estrogen pathway: Receptor binding, Call [8]: Pos
Estrogen pathway: Reporter protein Agonist, Call [8]: Pos
Estrogen pathway: Reporter protein Antagonist, Call [8]: Neg
Estrogen pathway: mRNA induction, Call [8]: Pos
AC50 ([8]; read-out: Estrogen pathway: Cell Proliferation, AC50): 0.15 µM
AC50 ([8]; read-out: Estrogen pathway: Dimerization, AC50): 0.77 µM
AC50 ([8]; read-out: Estrogen pathway: Receptor binding, AC50): 0.17 µM
AC50 ([8]; read-out: Estrogen pathway: Reporter protein Agonist, AC50): 1.68 µM
AC50 ([8]; read-out: Estrogen pathway: mRNA induction, AC50): 0.15 µM
inhibition at 10 µM [9]: 20.5%
Thyroid pathway: Regulation of transcription factor activity (TSHR), Call [10]: Neg
ER agonist, Experimental [11]: Active (medium)
ER binding, Experimental [11]: Active (weak)
Apoptosis & necrosis: cell membrane permeability: Effect [12]: decrease
AC50 ([12]; read-out: Apoptosis & necrosis: caspase 3/7: AC50): > 100 µM
AC50 ([12]; read-out: Apoptosis & necrosis: cell membrane permeability: AC50): > 100 µM
AC50 ([12]; read-out: Cellular ATP: AC50): > 100 µM
AC50 ([12]; read-out: ER stress panel 1: ER integrity: AC50): > 100 µM
AC50 ([12]; read-out: Inflammation & pH: HIF1α: AC50): > 100 µM
AC50 ([12]; read-out: Inflammation & pH: intracellular pH: AC50): > 100 µM
AC50 ([12]; read-out: Mitochondrial mass: AC50): > 100 µM
AC50 ([12]; read-out: Mitochondrial membrane potential: AC50): 55.3 µM
AC50 ([12]; read-out: Nuclear size: AC50): > 100 µM
AC50 ([12]; read-out: Osmotic & heat shock: NFAT: AC50): > 100 µM
AC50 ([12]; read-out: Osmotic & heat shock: hsp70: AC50): > 25 µM
AC50 ([12]; read-out: Oxidative stress: HMOX1: AC50): 77.6 µM
AC50 ([12]; read-out: Oxidative stress: NRF2: AC50): > 100 µM
Apoptosis & necrosis: caspase 3/7: MEC ([12]; human, 24 h): 36.9 µM
Apoptosis & necrosis: cell membrane permeability: MEC ([12]; human, 24 h): 51.5 µM
Cell stress LOEC, ↓ in mitochondrial membrane potential ([12]; human, 24 h): 10.8 µM
Cellular ATP: MEC ([12]; human, 24 h): 89.4 µM
ER stress panel 1: ER integrity: MEC ([12]; human, 24 h): 82.6 µM
Inflammation & pH: HIF1α: MEC ([12]; human, 24 h): 32.3 µM
Inflammation & pH: intracellular pH: MEC ([12]; human, 24 h): 26.3 µM
Mitochondrial mass: MEC ([12]; human, 24 h): 25.9 µM
Mitochondrial membrane potential: MEC ([12]; human, 24 h): 10.8 µM
Nuclear size: MEC ([12]; human, 24 h): 69.2 µM
Osmotic & heat shock: NFAT: MEC ([12]; human, 24 h): 25.0 µM
Osmotic & heat shock: hsp70: MEC ([12]; human, 24 h): 3.3 µM
Oxidative stress: HMOX1: MEC ([12]; human, 24 h): 44 µM
Oxidative stress: NRF2: MEC ([12]; human, 24 h): 30.4 µM
Phospholipidosis: MEC ([12]; human, 24 h): 14.2 µM
Steatosis: MEC ([12]; human, 24 h): 77.4 µM

Source: article PMC11220827 (Frontiers in Pharmacology, 2024)
